From patent US20210045385A1, “PYRIDAZINONE-SUBSTITUTED KETOXIMES AS HERBICIDES” (FMC Corporation, priority 2018, published 2021)

Columns and labels:
Format in all cases: in vivo
[1] = test system: duck salad (Heteranthera limosa); test: Test D flooded paddy test, visual plant response rating; conditions: 250 g ai/ha, scale 0 to 100 (0 no effect, 100 complete control), 13 to 15 d
In short: (§1)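 Plants grown to the 2-leaf stage; pots flooded to 3 cm above soil and compound applied directly into paddy water, depth held throughout. Kept in greenhouse 13 to 15 d, then rated visually against untreated controls on a 0–100 scale (0 no effect, 100 complete control).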

[2] = test system: barnyardgrass (Echinochloa crus-galli); test: as above; conditions: 250 g ai/ha, scale 0 to 100 (0 no effect, 100 complete control), 13 to 15 d
In short: as §1

[3] = test system: sedge umbrella (small-flower umbrella sedge, Cyperus difformis); test: as above; conditions: 250 g ai/ha, scale 0 to 100 (0 no effect, 100 complete control), 13 to 15 d
In short: as §1

rice (Oryza sativa) = test: as above; conditions: 250 g ai/ha, scale 0 to 100 (0 no effect, 100 complete control), 13 to 15 d
In short: as §1

kochia (Bassia scoparia) [4] = test: Test C preemergence, visual plant response rating
In short: (§2)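 Seeds sown in a loam–sand blend got a directed preemergence soil spray; postemergence plants (2–10 cm, one- to two-leaf stage) were sprayed with compound in a non-phytotoxic solvent plus surfactant. Injury was scored visually against untreated controls after about 10 d in a greenhouse on a 0–100 scale (100 = complete control).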

[5] = test system: barnyardgrass (Echinochloa crus-galli); test: Test C preemergence, visual plant response rating
In short: as §2

[6] = test system: foxtail, giant (giant foxtail, Setaria faberi); test: Test C preemergence, visual plant response rating
In short: as §2

[7] = test system: ragweed (common ragweed, Ambrosia artemisiifolia); test: Test C preemergence, visual plant response rating
In short: as §2

[8] = test system: Italian ryegrass (Lolium mutiflorum); test: Test C preemergence, visual plant response rating
In short: as §2

[9] = test system: pigweed (Amaranthus retroflexus); test: Test C preemergence, visual plant response rating
In short: as §2

corn (Zea mays) = test: Test C postemergence, visual plant response rating
In short: as §2

kochia (Bassia scoparia) [10] = test: Test C postemergence, visual plant response rating
In short: as §2

[11] = test system: galium (catchweed bedstraw, Galium aparine); test: Test C postemergence, visual plant response rating
In short: as §2

[12] = test system: wheat (Triticum aestivum); test: Test C postemergence, visual plant response rating
In short: as §2

[13] = test system: barnyardgrass (Echinochloa crus-galli); test: Test C postemergence, visual plant response rating
In short: as §2

[14] = test system: blackgrass (Alopecurus myosuroides); test: Test C postemergence, visual plant response rating
In short: as §2

[15] = test system: foxtail, giant (giant foxtail, Setaria faberi); test: Test C postemergence, visual plant response rating
In short: as §2

[16] = test system: ragweed (common ragweed, Ambrosia artemisiifolia); test: Test C postemergence, visual plant response rating
In short: as §2

[17] = test system: Italian ryegrass (Lolium mutiflorum); test: Test C postemergence, visual plant response rating
In short: as §2

[18] = test system: pigweed (Amaranthus retroflexus); test: Test C postemergence, visual plant response rating
In short: as §2

[19] = Test C, postemergence, 125 g ai/ha
[20] = Test C, postemergence, 500 g ai/ha
[21] = Test C, 31 g ai/ha, 0 is no effect, 100 is complete control
[22] = Test C, 125 g ai/ha, 0 is no effect, 100 is complete control

CON=C(c1csc(C)c1)c1c(O)c(C)nn(C)c1=O [Compound 151]
10: Barnyardgrass plant response rating (0 to 100 scale) [13, 20] | Foxtail, Giant plant response rating (0 to 100 scale) [15, 20] | Pigweed plant response rating (0 to 100 scale) [18, 19] | Pigweed plant response rating (0 to 100 scale) [18, 20]
0: Plant response rating, Ducksalad (Flood) [1] | Plant response rating, Barnyardgrass (Flood) [2] | Plant response rating, Sedge, Umbrella (Flood) [3] | Plant response rating, Rice (Flood) (rice (Oryza sativa)) | Kochia plant response rating (0 to 100 scale) (kochia (Bassia scoparia) [4]; 125 g ai/ha) | Kochia plant response rating (0 to 100 scale) (kochia (Bassia scoparia) [4]; 500 g ai/ha) | Barnyardgrass plant response rating (0 to 100 scale) ([5]; 125 g ai/ha) | Barnyardgrass plant response rating (0 to 100 scale) ([5]; 500 g ai/ha) | Foxtail, Giant plant response rating (0 to 100 scale) ([6]; 125 g ai/ha) | Foxtail, Giant plant response rating (0 to 100 scale) ([6]; 500 g ai/ha) | Ragweed plant response rating (0 to 100 scale) ([7]; 125 g ai/ha) | Ragweed plant response rating (0 to 100 scale) ([7]; 500 g ai/ha) | Ryegrass, Italian plant response rating (0 to 100 scale) ([8]; 125 g ai/ha) | Pigweed plant response rating (0 to 100 scale) ([9]; 125 g ai/ha) | Pigweed plant response rating (0 to 100 scale) ([9]; 500 g ai/ha) | Corn plant response rating (0 to 100 scale) (corn (Zea mays); [19]) | Corn plant response rating (0 to 100 scale) (corn (Zea mays); [20]) | Kochia plant response rating (0 to 100 scale) (kochia (Bassia scoparia) [10]; [19]) | Wheat plant response rating (0 to 100 scale) [12, 19] | Wheat plant response rating (0 to 100 scale) [12, 20] | Barnyardgrass plant response rating (0 to 100 scale) [13, 19] | Blackgrass plant response rating (0 to 100 scale) [14, 19] | Foxtail, Giant plant response rating (0 to 100 scale) [15, 19] | Ragweed plant response rating (0 to 100 scale) [16, 19]
30: Ryegrass, Italian plant response rating (0 to 100 scale) ([8]; 500 g ai/ha) | Blackgrass plant response rating (0 to 100 scale) [14, 20] | Ragweed plant response rating (0 to 100 scale) [16, 20] | Ryegrass, Italian plant response rating (0 to 100 scale) [17, 20]
50: Galium plant response rating (0 to 100 scale) [11, 20]
20: Kochia plant response rating (0 to 100 scale) (kochia (Bassia scoparia) [10]; [20]) | Ryegrass, Italian plant response rating (0 to 100 scale) [17, 19]
40: Galium plant response rating (0 to 100 scale) [11, 19]

CO/N=C(\c1c(O)c(Cl)nn(C)c1=O)c1cc(Br)cc2ccccc12 [Compound 250]
70: Plant response rating, Sedge, Umbrella (Flood) [3] | Barnyardgrass plant response rating (0 to 100 scale) [5, 21] | Pigweed plant response rating (0 to 100 scale) [9, 22] | Pigweed plant response rating (0 to 100 scale) [18, 19]
25: Plant response rating, Barnyardgrass (Flood) [2]
100: Galium plant response rating (0 to 100 scale) [11, 19] | Ragweed plant response rating (0 to 100 scale) ([16]; Postemergence, 31 g ai/ha) | Ragweed plant response rating (0 to 100 scale) [16, 19]
10: Plant response rating, Rice (Flood) (rice (Oryza sativa)) | Pigweed plant response rating (0 to 100 scale) [9, 21] | Corn plant response rating (0 to 100 scale) (corn (Zea mays); [19]) | Blackgrass plant response rating (0 to 100 scale) ([14]; Postemergence, 31 g ai/ha)
30: Blackgrass plant response rating (0 to 100 scale) [14, 19]
0: Kochia plant response rating (0 to 100 scale) (kochia (Bassia scoparia) [4]; [21]) | Ryegrass, Italian plant response rating (0 to 100 scale) [8, 21] | Ryegrass, Italian plant response rating (0 to 100 scale) [8, 22] | Corn plant response rating (0 to 100 scale) (corn (Zea mays); Postemergence, 31 g ai/ha) | Wheat plant response rating (0 to 100 scale) ([12]; Postemergence, 31 g ai/ha) | Wheat plant response rating (0 to 100 scale) [12, 19] | Ryegrass, Italian plant response rating (0 to 100 scale) ([17]; Postemergence, 31 g ai/ha) | Ryegrass, Italian plant response rating (0 to 100 scale) [17, 19]
40: Foxtail, Giant plant response rating (0 to 100 scale) [6, 21] | Kochia plant response rating (0 to 100 scale) (kochia (Bassia scoparia) [10]; Postemergence, 31 g ai/ha)
85: Plant response rating, Ducksalad (Flood) [1]
50: Barnyardgrass plant response rating (0 to 100 scale) ([13]; Postemergence, 31 g ai/ha) | Pigweed plant response rating (0 to 100 scale) ([18]; Postemergence, 31 g ai/ha)
80: Kochia plant response rating (0 to 100 scale) (kochia (Bassia scoparia) [4]; [22]) | Barnyardgrass plant response rating (0 to 100 scale) [5, 22] | Foxtail, Giant plant response rating (0 to 100 scale) [6, 22] | Barnyardgrass plant response rating (0 to 100 scale) [13, 19] | Foxtail, Giant plant response rating (0 to 100 scale) [15, 19]
60: Kochia plant response rating (0 to 100 scale) (kochia (Bassia scoparia) [10]; [19])
20: Foxtail, Giant plant response rating (0 to 100 scale) ([15]; Postemergence, 31 g ai/ha)
90: Galium plant response rating (0 to 100 scale) ([11]; Postemergence, 31 g ai/ha)
